The text below walks through data of article PMC8306477, “Neuroprotective Effect of Terpenoids Recovered from Olive Oil By-Products” (Foods, 2021).

Data set [1] can be described thus: ROS scavenging capacity, ORAC method. The settings on record: mean ± SD (n = 3). The method, then:
Oxygen radical absorbance capacity (ORAC) method was performed as reported by Ou et al. (2001). Briefly, 100 μL of the extract sample at different concentrations (5–50 μg/mL) in EtOH/H2O (1: 9, v/v), 100 μL of AAPH (590 mM) in PBS buffer (30 mM, pH = 7.5), 25 μL of fluorescein (10 μM) in PBS buffer, and 100 μL of PBS buffer were placed in a 96-well microplate. The fluorescence kinetic measurements were recorded at λexcitation = 485 nm and λemission = 530 nm at intervals of 5 min for a runtime of 60 min at 37 °C. Ascorbic acid was used as the reference standard. Each measurement was carried out in triplicate and the capacity of the extract for scavenging peroxyl radicals generated by spontaneous decomposition of AAPH was calculated through the inhibition percentage of the difference between the Area Under the Curve (AUC) of fluorescence decay in the presence (AUCsample) or absence (AUCcontrol) of the sample by Equation (4). (4) %Inh=AUCcontrol−AUCsample/AUCcontrol×100

Data set [2] in a line: ABTS•+ radical scavenging assay. The settings on record: mean ± SD (n = 3); 45 min, 30 °C. The method, then: Antioxidant activity of all olive leaves extracts was measured using the ABTS^•+ radical scavenging assay according to Re et al., (1999) with modifications. […] After this time, radical ABTS^•+ solution was diluted with the buffer (5 mM, pH 7.4) to adjust the absorbance to 0.700 ± 0.002 measured at 734 nm wavelength and 30 °C. The 96-well microplate containing 250 μL ABTS^•+ solution and 100 μL of olive leaves extract at six different concentrations (from 14.3 to 143 μg/mL EtOH/H2O (1:1, v/v)) was incubated in the dark at 30 °C. After 45 min, the absorbance at 734 nm was measured. Trolox and ascorbic acid were used as reference standards while rosemary extract was used as natural reference standard. All measurements were performed in triplicate. ABTS^•+ inhibition percentage from olive leaves extracts was calculated as follows:(3) %Inh=AABTScontrol−(Asample−Asample blank)/AABTS control×100 where AABTScontrol is the absorbance of ABTS^•+ radical in buffer at t = 0 min; Asample, is the absorbance of an ABTS^•+ solution mixed with extracts; and Asample blank is the absorbance of samples without ABTS^•+.

Data set [3] can be described thus: RNS scavenging capacity, nitric oxide radical (Griess) assay. Conditions: NO• scavenging; mean ± SD (n = 3). The method, then:
RNS was evaluated by the nitric oxide (NO^•) radical scavenging assay of OLE, according to Ho et al. (2010), based on the reaction of Griess. The 96-well microplate filling distribution was as follows: 100 μL of extract sample at different concentrations (250–2500 μg/mL) in EtOH/H2O (1:3, v/v), and 50 μL of SNP (5 mM) in buffer (30 mM pH = 7.5). The mixture was incubated at room temperature for 2 h under direct light. Nitrile ion concentration was measured at […] after the addition of […] Ascorbic acid was used as the reference standard. Each measurement was carried out in triplicate and the capacity of the extract for scavenging NO^• radicals was calculated through inhibition percentage as described in Equation (3).
A general note: The Griess reaction detects nitrite, a stable product of nitric oxide.

Data set [4] in a line: PAMPA-BBB permeability of terpenes of SS adsorbate. It counts as in vitro ADME. The protocol:
Previously, the BBB solution was prepared by dissolving 8 mg of PBL and 4 mg of cholesterol in 600 μL n-dodecane. Ethanolic olive leaves extract was dissolved in buffer (5 mM pH 7.4) as an initial solution at 10 mg/mL (EtOH/buffer, 1:1, v/v). Then, the filter membrane of the donor microplate was impregnated with 5 μL of BBB solution and the acceptor microplate was filled with 350 μL of buffer. Then, 200 μL of initial solution was added to the donor microplate which was assembled like a sandwich over the acceptor microplate. The microplate was incubated in the dark for 4 h at 37 °C and continuous agitation. After the incubation process, 200 μL were taken from each microplate, placed into a vial, dried, and reconstituted in 50 μL of EtOH to obtain donor and acceptor solutions. Both solutions were injected in the GC-qTOF-MS system to identify and compare the compounds present in both microplates. […] CD(t) is compound concentration in the donor well at time t and CA(t) is compound concentration in the acceptor well at time t.
For orientation: The PAMPA barrier holds no transporters, so it reflects passive diffusion.

On the set-up of data set [5]: method as in PMID 23565574. The settings on record: BBB permeability of pharmacological drugs; cited from earlier work.
Where [6] appears, read: terpene within Sea Sand Adsorbate, 4 h, 37 °C, buffer pH 7.4, GC-qTOF-MS, read-out: PAMPA-BBB Log Pe (RSD %) (converted).

Structures are written as SMILES. Where two headings read alike, the source gives them in different places. Marks after values point to notes of the source that are not given here.

Regarding `Cc1c(C)c2c(c(C)c1O)CCC(C)(C(=O)O)O2` (racemic) [Trolox, (±)-6-Hydroxy-2,5,7,8-tetramethylchromane-2-carboxylic acid], in data set [1], the “ROS IC50” value was 0.98 ± 0.11 ^c µg/mL. Besides, the “Antioxidant Capacity by ABTS IC50” value in data set [2] is listed as 2.50 ± 0.02 ^r µg/mL. Turning to `O=C1O[C@H]([C@@H](O)CO)C(O)=C1O` [Ascorbic acid], the “ROS IC50” value in data set [1] is on record as 1.29 ± 0.09 ^b µg/mL. In addition, in data set [3], the “RNS IC50” value is recorded as 1100.90 ± 13.96 ^b µg/mL. The “Antioxidant Capacity by ABTS IC50” value in data set [2] was 25.00 ± 0.30 ^a µg/mL. In the case of `CC1(C)CC[C@]2(CO)CC[C@]3(C)C(=CC[C@@H]4[C@@]5(C)CC[C@H](O)C(C)(C)[C@@H]5CC[C@]43C)[C@@H]2C1` [Erythrodiol], in data set [4] (setting [6]), the Papp at 4 h was 0.575 ×10⁻⁶ cm/s. In the case of `COc1ccc2c3c1O[C@H]1C[C@@H](O)C=C[C@@]31CCN(C)C2` [Galantamine], the “log Pe ± SD” value in data set [5] is on record as −5.35 ± 0.02 cm/s. As to `O=c1c(O)c(-c2ccc(O)c(O)c2)oc2cc(O)cc(O)c12` [Quercetin], the “log Pe ± SD” value in data set [5] is given as −7.02 ± 0.08 cm/s.

Turning to `CC(C)=CCC/C(C)=C/CC/C(C)=C/CC/C=C(\C)CC/C=C(\C)CCC=C(C)C` [Squalene], the Papp at 4 h in data set [4] (setting [6]) was 13.2 ×10⁻⁶ cm/s. On the same count and under the same terms, under `C[C@H]1[C@H](C)CC[C@]2(CO)CC[C@]3(C)C(=CC[C@@H]4[C@@]5(C)CC[C@H](O)C(C)(C)[C@@H]5CC[C@]43C)[C@H]12` [Uvaol] stands 1.51 ×10⁻⁶ cm/s; under `Cc1c(C)c2c(c(C)c1O)CC[C@@](C)(CCC[C@H](C)CCC[C@H](C)CCCC(C)C)O2` [α-Tocopherol], 1.15 ×10⁻⁶ cm/s. In data set [4] (pH 7.4), `CC1(C)CC[C@]2(C)CC[C@]3(C)C(=CC[C@@H]4[C@@]5(C)CC[C@H](O)C(C)(C)[C@@H]5CC[C@]43C)[C@@H]2C1` [β-Amyrin] gave a Papp at 4 h of 0.479 ×10⁻⁶ cm/s. Consider `CC[C@H](CC[C@@H](C)[C@H]1CC[C@H]2[C@@H]3CC=C4C[C@@H](O)CC[C@]4(C)[C@H]3CC[C@]12C)C(C)C` [β-Sitosterol], for which, in data set [4] (setting [6]), the Papp at 4 h was 0.912 ×10⁻⁶ cm/s.

In the case of `Cc1c(O)cc2c(c1C)O[C@](C)(CCC[C@H](C)CCC[C@H](C)CCCC(C)C)CC2` [γ-Tocopherol], the Papp at 4 h in data set [4] (setting [6]) was 8.91 ×10⁻⁶ cm/s.
